From BindingDB's records for patent US10065963 (Incyte Corporation, 2018)

Experiments:
[1] = target: Tyrosine-protein kinase JAK1 (Homo sapiens, UniProt P23458); assay: In Vitro JAK Kinase Assay; details: pH 7.8; 25 °C
[2] = target: T1, Phosphatidylinositol 4,5-bisphosphate 3-kinase catalytic subunit delta isoform (Homo sapiens, UniProt O00329); assay: PI3K-delta Scintillation Proximity Assay; details: pH 6.7; 25 °C
T1 sequence (O00329 whole entry): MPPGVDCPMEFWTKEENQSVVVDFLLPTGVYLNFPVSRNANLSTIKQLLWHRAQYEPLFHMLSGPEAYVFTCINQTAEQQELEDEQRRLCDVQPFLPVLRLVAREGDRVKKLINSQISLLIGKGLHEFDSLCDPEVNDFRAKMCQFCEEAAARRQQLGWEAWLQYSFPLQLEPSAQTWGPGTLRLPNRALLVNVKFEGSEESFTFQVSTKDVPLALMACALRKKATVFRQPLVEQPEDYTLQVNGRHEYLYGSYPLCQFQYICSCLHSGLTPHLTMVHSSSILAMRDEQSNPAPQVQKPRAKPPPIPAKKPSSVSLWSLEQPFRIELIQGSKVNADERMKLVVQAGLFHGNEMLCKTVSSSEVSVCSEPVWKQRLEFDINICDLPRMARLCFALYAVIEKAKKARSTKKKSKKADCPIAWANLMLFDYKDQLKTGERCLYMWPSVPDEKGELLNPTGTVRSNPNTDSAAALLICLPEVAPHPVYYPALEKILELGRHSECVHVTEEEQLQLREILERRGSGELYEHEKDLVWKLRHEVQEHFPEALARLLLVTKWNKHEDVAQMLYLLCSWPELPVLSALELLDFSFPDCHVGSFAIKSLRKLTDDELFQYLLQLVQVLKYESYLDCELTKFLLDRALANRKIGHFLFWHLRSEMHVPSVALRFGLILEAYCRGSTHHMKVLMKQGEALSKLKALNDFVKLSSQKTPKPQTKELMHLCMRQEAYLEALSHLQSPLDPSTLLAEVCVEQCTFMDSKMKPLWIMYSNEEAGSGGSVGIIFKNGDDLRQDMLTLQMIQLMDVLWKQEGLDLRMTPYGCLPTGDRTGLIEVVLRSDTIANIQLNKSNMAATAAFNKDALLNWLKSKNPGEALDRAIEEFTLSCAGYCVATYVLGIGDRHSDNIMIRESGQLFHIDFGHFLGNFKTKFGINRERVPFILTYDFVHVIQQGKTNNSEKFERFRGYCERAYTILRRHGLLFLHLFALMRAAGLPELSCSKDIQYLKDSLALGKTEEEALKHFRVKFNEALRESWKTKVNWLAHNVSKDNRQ

[3] = target: Phosphatidylinositol 4,5-bisphosphate 3-kinase catalytic subunit gamma isoform (Homo sapiens, UniProt P48736); assay: PI3K-gamma Scintillation Proximity Assay; details: pH 6.7; 25 °C
Sequence of Phosphatidylinositol 4,5-bisphosphate 3-kinase catalytic subunit gamma isoform (P48736 whole entry, canonical isoform): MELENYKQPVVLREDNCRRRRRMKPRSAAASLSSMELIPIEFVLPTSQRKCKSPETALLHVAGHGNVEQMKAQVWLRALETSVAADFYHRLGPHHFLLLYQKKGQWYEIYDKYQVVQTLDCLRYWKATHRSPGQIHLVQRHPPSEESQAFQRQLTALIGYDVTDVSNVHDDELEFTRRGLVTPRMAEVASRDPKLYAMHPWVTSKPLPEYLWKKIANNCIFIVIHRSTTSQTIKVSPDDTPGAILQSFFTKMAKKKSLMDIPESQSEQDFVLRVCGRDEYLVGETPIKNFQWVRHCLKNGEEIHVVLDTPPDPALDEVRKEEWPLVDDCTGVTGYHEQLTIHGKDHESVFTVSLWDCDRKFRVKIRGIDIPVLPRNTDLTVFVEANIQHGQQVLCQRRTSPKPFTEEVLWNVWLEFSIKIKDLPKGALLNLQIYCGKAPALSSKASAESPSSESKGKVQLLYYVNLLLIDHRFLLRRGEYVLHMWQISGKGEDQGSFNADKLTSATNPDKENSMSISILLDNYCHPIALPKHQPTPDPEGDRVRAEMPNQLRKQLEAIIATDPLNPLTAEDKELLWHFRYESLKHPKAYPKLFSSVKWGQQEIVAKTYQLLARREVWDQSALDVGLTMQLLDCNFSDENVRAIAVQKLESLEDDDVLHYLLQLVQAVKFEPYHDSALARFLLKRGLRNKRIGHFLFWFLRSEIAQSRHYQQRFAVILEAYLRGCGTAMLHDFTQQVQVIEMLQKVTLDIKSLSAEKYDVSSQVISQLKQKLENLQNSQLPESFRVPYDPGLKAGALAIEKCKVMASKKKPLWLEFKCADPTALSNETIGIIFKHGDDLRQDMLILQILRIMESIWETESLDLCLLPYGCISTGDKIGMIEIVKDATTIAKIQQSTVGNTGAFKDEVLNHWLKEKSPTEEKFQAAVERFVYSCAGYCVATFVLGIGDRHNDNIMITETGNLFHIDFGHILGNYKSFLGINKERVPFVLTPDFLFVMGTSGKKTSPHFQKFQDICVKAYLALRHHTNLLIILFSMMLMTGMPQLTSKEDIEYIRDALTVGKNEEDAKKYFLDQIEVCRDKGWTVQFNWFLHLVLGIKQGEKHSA
Experimental: PI3Kγ (p110γ) Recombinant Human Protein was purchased from Life technology (Grand Island, N.Y.). […] The final concentration of DMSO in the assay was 2%. […] ATP, 13 nM PI3Kγ. […] The final concentration of SPA beads is 1.0 mg/mL.

Sequence of Tyrosine-protein kinase JAK1 (P23458 whole entry, canonical isoform): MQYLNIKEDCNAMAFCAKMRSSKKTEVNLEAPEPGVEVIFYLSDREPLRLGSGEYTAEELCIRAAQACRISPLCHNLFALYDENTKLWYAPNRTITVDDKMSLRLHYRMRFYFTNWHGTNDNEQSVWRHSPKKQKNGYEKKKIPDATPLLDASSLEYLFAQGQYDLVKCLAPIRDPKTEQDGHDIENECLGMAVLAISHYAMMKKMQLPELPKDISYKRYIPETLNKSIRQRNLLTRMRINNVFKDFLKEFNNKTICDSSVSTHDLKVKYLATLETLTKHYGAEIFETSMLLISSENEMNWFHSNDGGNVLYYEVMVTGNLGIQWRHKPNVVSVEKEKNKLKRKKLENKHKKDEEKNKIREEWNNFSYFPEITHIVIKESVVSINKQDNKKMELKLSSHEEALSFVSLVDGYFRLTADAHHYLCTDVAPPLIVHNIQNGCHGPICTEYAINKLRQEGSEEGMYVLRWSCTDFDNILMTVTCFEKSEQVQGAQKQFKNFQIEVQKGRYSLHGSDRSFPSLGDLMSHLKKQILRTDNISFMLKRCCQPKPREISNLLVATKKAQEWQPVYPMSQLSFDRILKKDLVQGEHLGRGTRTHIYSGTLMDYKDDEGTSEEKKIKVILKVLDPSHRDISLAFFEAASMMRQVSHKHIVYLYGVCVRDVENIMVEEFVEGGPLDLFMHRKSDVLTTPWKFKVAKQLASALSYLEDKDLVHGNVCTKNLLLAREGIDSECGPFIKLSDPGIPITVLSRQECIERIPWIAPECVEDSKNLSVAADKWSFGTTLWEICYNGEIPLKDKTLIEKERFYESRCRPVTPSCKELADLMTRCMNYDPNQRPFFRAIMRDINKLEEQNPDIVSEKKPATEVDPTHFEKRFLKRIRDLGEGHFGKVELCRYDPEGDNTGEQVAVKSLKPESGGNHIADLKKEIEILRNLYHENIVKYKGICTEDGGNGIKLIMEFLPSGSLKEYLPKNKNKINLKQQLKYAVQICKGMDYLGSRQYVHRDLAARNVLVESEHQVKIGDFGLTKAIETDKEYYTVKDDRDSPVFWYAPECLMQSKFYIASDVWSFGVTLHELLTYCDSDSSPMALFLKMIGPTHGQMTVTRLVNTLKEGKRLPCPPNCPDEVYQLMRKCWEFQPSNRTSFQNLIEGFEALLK

IC50 [1] | SMILES | IC50 [2] | IC50 [3]
< 100 nM | N#CCC(CN1CCN(C(=O)c2ccc(C#N)cc2F)CC1)n1cc(-c2ncnc3[nH]ccc23)cn1 (stereo not drawn) [US10065963, Compound 5] | – | –
– | C[C@H](NC(=O)c1c(N)nn2cccnc12)c1cc(Cl)c2cncn2c1N1CCS(=O)(=O)[C@@H](C)C1 [US10065963, Example 31B] | < 100 nM | < 100 nM
